{"source": "patent US20190259469A1", "about": "“Method for Evaluating Genotoxicity of Substance” (priority 2017, published 2019)", "key": {"[1]": {"tested_on": "Salmonella TA100 strain", "assay": "Mutation analysis by high-throughput sequencing of total DNA of TA100 strain exposed to mutagen", "assay_type": "cell-based, S. typhimurium", "experimental": "(§1) In this Example, the genotoxicity of a mutagen was analyzed by qualitatively and quantitatively analyzing mutation patterns in the genome of an organism exposed to the mutagen according to the analysis method of the present invention. The mutagen used was ethylnitrosourea (ENU, CAS No. 759-73-9). A Salmonella TA100 strain which is available for detection of a base pair substitution mutation and is routinely used in the Ames test was used as the organism to be exposed to the mutagen. The experiment was conducted in 3 independent operations to prepare samples (n=3).\n(§2) The exposure to the mutagen was carried out in conformity to the preincubation method of the Ames test (K. Mortelmans et al., Mutat. Res. —Fundam. Mol. Mech. Mutagen., 2000, 455, 29-60). TA100 strain was inoculated to 2 mL of Nutrient Broth No. 2 (manufactured by Oxoid Ltd.) and shake-cultured at 37° C. at 180 rpm for 4 hours to obtain a preculture solution having an O.D. 660 value of 1.0 or more. ENU (54%; manufactured by Sigma-Aldrich Co. LLC) was diluted with dimethyl sulfoxide (DMSO; manufactured by Wako Pure Chemical Industries, Ltd.). One hundred μL of the ENU solution diluted into an appropriate concentration, 500 μL of a 0.1 M phosphate buffer, and 100 μL of the preculture solution were added into a test tube (ENU concentration: 67.5, 135, 270, 405, 540, 810, and 1080 μg/tube), and shake-cultured at 100 rpm for 20 minutes in a water bath of 37° C. For a control group, 100 μL of a solvent (DMSO) was added instead of the ENU solution. After the shake culture for 20 minutes, the test tube containing the culture solution was taken out of the water bath. Fifty μL of the culture solution was added to 2 mL of a nutrient broth solution dispensed in advance, and additionally cultured at 37° C. at 180 rpm for 14 hours. Then, 1 mL of the bacterial suspension was recovered and centrifuged at 7,500 rpm for 5 minutes. The supernatant was removed to recover bacterial cells.\nFrom the bacterial cells obtained in the paragraph 1., total DNA was recovered using DNeasy Blood & Tissue Kit (manufactured by Qiagen N.V.) according to the recommended protocol.\nThe total DNA solutions recovered in the paragraph 2. from the control group and the ENU treatment groups were sequenced using a next-generation sequencer HiSeq 2500 (manufactured by Illumina, Inc.) according to the standard protocol. In this operation, DNA was fragmented into an average length of approximately […] by ultrasonic treatment. Adaptors were added to both ends of each fragment. The fragments were sequenced at a read length of 2×125 bp. 5.0-Gbp nucleotide sequence information per sample was obtained on average.\nThe editing of read sequences obtained by the sequencing and mutation analysis were conducted using Cutadapt software, PEAR software, Bowtie 2 software, Samtools software, and a program created using a programming language Python according to the conceptual diagram of analysis flow shown in Schematic diagram 2 in the same way as in Example 1. In this Example, PCR duplicates were removed using Picard tools (broadinstitute.github.io/picard/) after mapping using the Bowtie 2 software.\nA reference sequence for the mapping using the Bowtie 2 software was constructed on the basis of the genomic sequence of the S. typhimurium TA100 strain. First, DNA was extracted from the TA100 strain and sequenced using a next-generation sequencer HiSeq 2500 (manufactured by Illumina, Inc.) according to the standard protocol. In this operation, the DNA was fragmented into an average length of approximately 300 bp by ultrasonic treatment. Adaptors were added to both ends of each fragment. The fragments were sequenced at a read length of 2×125 bp. The obtained read sequences were mapped to the genomic sequence of a S. typhimurium LT-2 strain, a pSLT plasmid sequence (GCA000006945.2), and a R46 plasmid sequence (NC_003292.1), followed by mutation detection using Samtools software. […]"}, "[2]": {"tested_on": "Salmonella TA100 strain", "assay_type": "cell-based, S. typhimurium", "settings": "for The number of revertants: mean and standard deviation of 3 plates", "experimental": "as §1, §2\nFor the Ames test, a bacterial suspension exposed to ENU under the same conditions as above was also prepared. Two mL of top agar (containing 1% NaCl, 1% agar, 0.05 mM histidine and 0.05 mM biotin) warmed to 45° C. was added thereto, and the bacterial cells were suspended by vortex. Then, the suspension was layered over a minimal glucose agar medium (Tesmedia (Registered trademark) AN; manufactured by Oriental Yeast Co., Ltd.). The obtained plate was cultured at 37° C. for 48 hours. Then, observed colonies were counted.\nThe data was indicated by a mean and standard deviation of measurement values from 3 plates."}, "[3]": {"settings": "ENU 540 μg/tube, control subtracted"}}, "note": "Where two headings read alike, the source gives them in different places.", "data": [{"smiles": "CCN(N=O)C(N)=O", "note": "[ENU, ethylnitrosourea]", "values": [{"measurement": "Increased mutation frequencies by sequence context analysis (96 mutation types), C>T mutation", "setting": "[1]; 3-base context, FIG. 7 and FIG. 8", "value": "larger increase in mutation frequency was found in a context with a pyrimidine base (C or T) located at 3′ side to the C"}, {"measurement": "Ratio of AT > CG mutation pattern to the whole of increased mutation frequencies (mutation spectrum)", "setting": "[1]; [3]", "value": 2.36, "unit": "%"}, {"measurement": "Ratio of AT > GC mutation pattern to the whole of increased mutation frequencies (mutation spectrum)", "setting": "[1]; [3]", "value": 12.4, "unit": "%"}, {"measurement": "Ratio of AT > TA mutation pattern to the whole of increased mutation frequencies (mutation spectrum)", "setting": "[1]; [3]", "value": 11.5, "unit": "%"}, {"measurement": "Ratio of GC > AT mutation pattern to the whole of increased mutation frequencies (mutation spectrum)", "setting": "[1]; [3]", "value": 73.7, "unit": "%"}, {"measurement": "Increased mutation frequencies of GC base pair mutation patterns", "setting": "[1]; ENU 135, 270, 405 and 540 μg/tube, FIG. 4A", "value": "increase in the frequency of GC>AT mutation was found"}, {"measurement": "Increased mutation frequencies of AT base pair mutation patterns", "setting": "[1]; ENU 135, 270, 405 and 540 μg/tube, FIG. 4B", "value": "increase in the frequencies of AT>TA and AT>GC mutations was mainly found"}, {"measurement": "The number of revertants", "setting": "[2]; ENU 67.5 μg/plate", "value": "258 ± 2.5"}, {"measurement": "The number of revertants", "setting": "[2]; ENU 135 μg/plate", "value": "659 ± 113.9"}, {"measurement": "The number of revertants", "setting": "[2]; ENU 270 μg/plate", "value": "3320 ± 734.4"}, {"measurement": "The number of revertants", "setting": "[2]; ENU 405 μg/plate", "value": "4994 ± 455.6"}, {"measurement": "The number of revertants", "setting": "[2]; ENU 540 μg/plate", "value": "5051 ± 173.0"}, {"measurement": "The number of revertants", "setting": "[2]; ENU 810 μg/plate, growth inhibition on plate", "value": "3102 ± 883.0"}, {"measurement": "The number of revertants", "setting": "[2]; ENU 1080 μg/plate, growth inhibition on plate", "value": "503 ± 190.9"}, {"measurement": "Change in the number of revertants by exposure", "setting": "[2]; ENU 67.5 to 1080 μg/plate against DMSO", "value": "Increase in the number of revertants was found"}]}]}
